Measured values from article PMC10574143, “Exploring the Solubility Limits of Edaravone in Neat Solvents and Binary Mixtures: Experimental and Machine Learning Study” (Molecules, 2023).

Legend:
[1] = solubility data curation, three-parameter van't Hoff consensus; assay type: physicochemical; details: methanol, van't Hoff fit to data of refs 21, 26
Excerpt: The dataset characterizing edaravone solubility is an accumulation of values collected from available literature sources augmented with a series of new measurements reported in this paper, which are summarized in Supplementary Section S1. There are three accounts documenting the temperature-dependent solubility of the titled compound in fifteen neat solvents including alcohols, esters, some aprotic solvents, and water. Moreover, nine binary solvent mixtures were used for EDA dissolution measurements at a range of temperatures with a variety of binary compositions. […] First of all, one can notice serious divergences in the reported solubility values for some systems. This inconsistency prohibits the direct use of such a collection for the training of models due to the inherent noise in the dataset, which is a frequently occurring problem intrinsic to diverse measurement protocols. […] Secondly, the solubility space is not represented uniformly due to different numbers of measurements for dissimilar temperature ranges and concentrations of solvent mixtures, which might overrepresent those systems studied more extensively in the dataset. Finally, the main focus in solubility determination was narrowed to polar protic solvents, with very limited representation of non-protic or diprotic solvents. To address the first two issues, the final collection was cured using commonly accepted model equations by fitting their parameters based on experimental mole fractions. Here, the three-parameter van’t Hoff and Jouyban–Acree equations were used for neat and binary solvents, respectively. In addition, temperature standardization was performed for a uniform representation of solubility in the final dataset. […] The complete list of experimental solubility data is provided in the Supporting Materials (see Section S2). As can be directly inferred from the plots presented in Figure 1, incongruences appear not only in the solubility values but also in their temperature trends. […] Since only an arbitrary decision would allow the rejection of either of the measurement series, the final solubility dataset was constructed based on the predictions of the van’t Hoff equation, parametrized using all available experimental data. Moreover, temperature normalization was adopted by accepting data between 0 °C and 50 °C with 5 °C intervals. […] Fortunately, the majority of saturated EDA systems studied suffered experimentally from much smaller deviations, as detailed in the Supplementary Materials (see Section S2.1), and the ones presented in Figure 1 show the worst extremes.
The datasets used for model development underwent curing and unification. All solubility data in neat solvents were analyzed using a simple thermodynamic model relying on the fundamental van’t Hoff equation extended for the temperature dependence of the equilibrium constant by a polynomial fit. The following equation (1) lnxEcur=A+B/T+C/T^2 has three adjustable parameters, the values of which were computed by minimizing root mean square deviations (RMSD) between experimental and computed values. The collection of obtained parameter values for all analyzed systems (including literature data), along with graphical illustrations, is provided in the Supplementary Materials (see Section S2, Table S3 and Figure S2).

[2] = poor aqueous solubility; no reference given; cited from earlier work

log(x1consensus) ([1]; x2*=1.00, 0 °C): -1.93
log(x1consensus) ([1]; x2*=1.00, 5 °C): -1.87
log(x1consensus) ([1]; x2*=1.00, 10 °C): -1.80
log(x1consensus) ([1]; x2*=1.00, 15 °C): -1.73
log(x1consensus) ([1]; x2*=1.00, 20 °C): -1.66
Structure (SMILES): CC1=NN(c2ccccc2)C(=O)C1 [Edaravone, 5-methyl-2-phenyl-4H-pyrazol-3-one]
Biopharmaceutics Classification System (BCS) category [2]: Class IV
